Results taken from PubChem BioAssay (NCI).
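Values below derive from 48-hour exposures of cells grown in 96-well plates, with endpoints linearly interpolated between the two concentrations bracketing the appropriate inhibition level. GI50 = concentration required for 50% inhibition of growth. TGI: total growth inhibition.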

Columns and labels:
Assay in all cases: inhibition of tumour cell growth, NCI panel, 48 h
[1] = system: MDA-MB-231 breast
[2] = system: SF-268 CNS
[3] = system: MDA-MB-435
[4] = system: SF-539 CNS
[5] = system: 786-0 renal
[6] = system: SK-MEL-5 melanoma
[7] = system: NCI-H23 lung
[8] = system: HS 578T breast
[9] = system: U251 CNS
[10] = system: SK-OV-3 ovarian
[11] = system: NCI-H522 lung
[12] = system: SR leukemia
[13] = system: SN12C renal
[14] = system: RXF 393 renal
[15] = system: EKVX NSCLC
[16] = system: RPMI-8226 leukemia
[17] = system: A498 renal
[18] = system: NCI-H460 lung
[19] = system: M14 melanoma
[20] = system: MALME-3M melanoma
[21] = system: HOP-62 NSCLC
[22] = system: K-562 leukemia
[23] = system: SK-MEL-2 melanoma
[24] = system: NCI-H226 lung
[25] = system: BT-549 breast
[26] = system: DU-145 prostate
[27] = system: CCRF-CEM leukemia
[28] = system: OVCAR-8 ovarian
[29] = system: LOX IMVI melanoma
[30] = system: SW-620 colon
[31] = system: MOLT-4 leukemia
[32] = system: OVCAR-3 ovarian
[33] = system: HCC-2998 colon
[34] = system: PC-3 prostate
[35] = system: A549 NSCLC
[36] = system: COLO 205 colon
[37] = system: UO-31 renal
[38] = system: MCF7 breast
[39] = system: UACC-257 melanoma
[40] = system: OVCAR-5 ovarian
[41] = system: OVCAR-4 ovarian
[42] = system: SK-MEL-28 melanoma
[43] = system: ACHN renal
[44] = system: HCT-116 colon
[45] = system: HL-60(TB) leukemia
[46] = system: NCI/ADR-RES ovarian
[47] = system: SF-295 CNS
[48] = system: IGROV1 ovarian
[49] = system: HT29 colon
[50] = system: CAKI-1 renal
[51] = system: SNB-75 CNS
[52] = system: HOP-92 NSCLC
[53] = system: T-47D breast
[54] = system: UACC-62 melanoma
[55] = system: HCT-15 colon
[56] = system: KM12 colon
[57] = system: SNB-19 CNS
[58] = system: TK-10 renal

Oc1ccc(N=Nc2ccc(N=Nc3ccccc3)cc2)cc1
GI50 [1]: 2.5 µM
TGI [1]: 7.09 µM
GI50 [2]: 1.63 µM
TGI [2]: 11.8 µM
GI50 [3]: 2.96 µM
TGI [3]: 14.7 µM
GI50 [4]: 0.712 µM
TGI [4]: 3.03 µM
GI50 [5]: 1.32 µM
TGI [5]: 6.05 µM
GI50 [6]: 2.1 µM
TGI [6]: 5.64 µM
GI50 [7]: 4.1 µM
TGI [7]: 19.5 µM
GI50 [8]: 12.4 µM
TGI [8]: 51 µM
GI50 [9]: 10.4 µM
TGI [9]: 26.9 µM
GI50 [10]: 3.29 µM
TGI [10]: 7.87 µM
GI50 [11]: 0.832 µM
TGI [11]: 3.94 µM
GI50 [12]: 1.79 µM
TGI [12]: 14 µM
GI50 [13]: 3.95 µM
TGI [13]: 17.2 µM
GI50 [14]: 14.3 µM
TGI [14]: 61.4 µM
GI50 [15]: 2.49 µM
TGI [15]: 12.5 µM
GI50 [16]: 2.15 µM
TGI [16]: 16 µM
GI50 [17]: 9.23 µM
TGI [17]: 21.7 µM
GI50 [18]: 1.97 µM
TGI [18]: 6.16 µM
GI50 [19]: 3.01 µM
TGI [19]: 10.1 µM
GI50 [20]: 11.6 µM
TGI [20]: 25.7 µM
GI50 [21]: 2.7 µM
TGI [21]: 9.05 µM
GI50 [22]: 0.615 µM
TGI [22]: 12.7 µM
GI50 [23]: 2.29 µM
TGI [23]: 8.06 µM
GI50 [24]: 18.3 µM
TGI [24]: 48.2 µM
GI50 [25]: 0.899 µM
TGI [25]: 9.06 µM
GI50 [26]: 2.09 µM
TGI [26]: 12.2 µM
GI50 [27]: 0.379 µM
TGI [27]: 14 µM
GI50 [28]: 3.2 µM
TGI [28]: 24.2 µM
GI50 [29]: 0.285 µM
TGI [29]: 1.76 µM
GI50 [30]: 1.51 µM
TGI [30]: 13.9 µM
GI50 [31]: 0.351 µM
TGI [31]: 11.9 µM
GI50 [32]: 1.71 µM
TGI [32]: 4.77 µM
GI50 [33]: 2.52 µM
TGI [33]: 11.1 µM
GI50 [34]: 2.83 µM
TGI [34]: 16.8 µM
GI50 [35]: 2.14 µM
TGI [35]: 12 µM
GI50 [36]: 8.01 µM
TGI [36]: 24.4 µM
GI50 [37]: 0.61 µM
TGI [37]: 3.73 µM
GI50 [38]: 1.5 µM
TGI [38]: 6.86 µM
GI50 [39]: 4.23 µM
TGI [39]: 17 µM
GI50 [40]: 4.16 µM
TGI [40]: 17.3 µM
GI50 [41]: 8.43 µM
TGI [41]: 32.9 µM
GI50 [42]: 1.7 µM
TGI [42]: 3.64 µM
GI50 [43]: 1.49 µM
TGI [43]: 5.59 µM
GI50 [44]: 1.99 µM
TGI [44]: 10.1 µM
GI50 [45]: 0.366 µM
TGI [45]: 16.1 µM
GI50 [46]: 3.67 µM
TGI [46]: 39.5 µM
GI50 [47]: 2.32 µM
TGI [47]: 10.1 µM
GI50 [48]: 3.5 µM
TGI [48]: 18.2 µM
GI50 [49]: 2.86 µM
TGI [49]: 9.68 µM
GI50 [50]: 1.45 µM
TGI [50]: 4.12 µM
GI50 [51]: 9.84 µM
TGI [51]: 47.8 µM
GI50 [52]: 6.97 µM
TGI [52]: 28.1 µM
GI50 [53]: 1.61 µM
TGI [53]: 6.73 µM
GI50 [54]: 0.874 µM
TGI [54]: 2.41 µM
GI50 [55]: 0.855 µM
TGI [55]: 12.9 µM
GI50 [56]: 2.98 µM
TGI [56]: 16.6 µM
GI50 [57]: 6.39 µM
TGI [57]: 19.7 µM
GI50 [58]: 1.98 µM
TGI [58]: 5.55 µM
